Columns and labels:
[1] = tested on: subjects who had been frequent users of Viagra®; assay: blinded study in volunteers, subjective evaluation whether an adequate, satisfactory erection was achieved; assay type: in vivo, human; details: oral capsule, out of 12 subjects
Method: In its preferred embodiment, three composition containing sildenafil citrate 12.5 mg, 25 or 50 mg containing the same amounts of L-arginine 200 mg, ginseng 100 mg, folic acid 0.5 mg, vitamin B6 100 mg and vitamin B12 0.75 mg were formulated in a capsule dosage form with suitable inert diluents to hide the identity of the product. […] In a blinded study, the volunteers were given all six products to test on an ad-lib basis. They were informed that the test includes evaluation of two formulations of sildenafil citrate. The volunteers were asked to evaluate the response subjectively whether an adequate, satisfactory erection was achieved. In its preferred embodiment, three composition containing sildenafil citrate 12.5 mg, 25 or 50 mg, and the same amounts of L-arginine 200 mg, ginseng 100 mg, folic acid 0.5 mg, vitamin B6 100 mg and vitamin B12 0.75 mg were formulated in a capsule dosage form with suitable inert diluents to hide the identity of the product. […] In a blinded study, the volunteers were given all six products to test on an ad-lib basis. They were informed that the test includes evaluation of two formulations of sildenafil citrate. At the lowest dose of 12.5 mg, when given alone, only 3 out of 12 subjects reported erection; when given as the composition described, 7 out of 12 subjects reported satisfactory erection. At 25 mg dose 8 out of 12 subjects reported satisfactory erection while 10 subjects reported satisfactory erection at 25 mg dose when given as the composition described. At 50 mg dose the difference was narrowed to 10 subjects reporting erection when given alone and 11 when given as the composition described. It is concluded from this study that using the combination of ingredients as specified in the composition, the required dose of sildenafil to treat sexual dysfunction can be reduced to achieve the same effect as when given alone but at higher does. The most significant advantage appears at lower doses. […]

men = details: controlled clinical trials; cited from earlier work
[2] = tested on: isolated human corpus cavernosum; details: cited from earlier work

In the case of `CCCc1nn(C)c2c(=O)[nH]c(-c3cc(S(=O)(=O)N4CCN(C)CC4)ccc3OCC)nc12.O=C(O)CC(O)(CC(=O)O)C(=O)O` [Viagra®, 1-[[3-(6,7-dihydro-1-methyL-7-oxo-3-propyL-1H-pyrazolo[4,3-d]pyrimidin-5-yl)-4-ethoxyphenyl]sulfonyl]-4-methylpiperazine citrate], the “subjects reporting satisfactory erection” value ([1]; 12.5 mg sildenafil citrate dose) is reported as 3 subjects, the “subjects reporting satisfactory erection” value ([1]; 25 mg sildenafil citrate dose) is reported as 8 subjects and the “subjects reporting satisfactory erection” value ([1]; 50 mg sildenafil citrate dose) is reported as 10 subjects. For the same compound, the “proves effective in men” value (men) was 7 out of 10 and the direct relaxant effect [2] was “no direct relaxant effect”.

Source: patent US6338862B1, “Composition and method of use in treating sexual dysfunction using cGMP-specific phosphodiesterase type 5 inhibitors” (priority 2001, dated 2002)
